Assay results as given in patent publication US20190015379A1, “USE OF DIANHYDROGALACTITOL AND ANALOGS AND DERIVATIVES THEREOF, TOGETHER WITH RADIATION, TO TREAT NON-SMALL-CELL CARCINOMA OF THE LUNG AND GLIOBLASTOMA MULTIFORME AND SUPPRESS PROLIFERATION OF CANCER STEM CELLS” (DelMar Pharmaceuticals, Inc., priority 2014, published 2019).

Tests used:
[1] = Phase I/II dose-escalation study, plasma pharmacokinetics; assay type: in vivo, human
Text: (§1) The methodology of the study reported in this Example is as follows: An open-label, single arm Phase I/II dose-escalation study designed to evaluate the safety, tolerability, pharmacokinetics and anti-tumor activity of dianhydrogalactitol in patients with: (i) histologically confirmed initial diagnosis of primary WHO Grade IV malignant GBM, now recurrent, or (ii) progressive secondary brain tumor, having failed standard brain radiotherapy, and with brain tumor progression after at least one line of systemic therapy. The study utilizes a 3+3 dose escalation design, until the MTD or the maximum specified dose is reached. Patients receive dianhydrogalactitol intravenously at the assigned dose on days 1, 2, and 3 of each 21-day treatment cycle. In Phase II, additional patients will be treated at the MTD (or other selected optimum Phase II dose) to measure tumor responses. All patients enrolled have previously been treated with surgery and/or radiation, if appropriate, and must have failed both bevacizumab and TMZ, unless contraindicated. For these studies, the following is a summary of the inclusion criteria: (1) Patients must be greater than or equal to 18 years old. […]

[2] = tested on: cancer stem cells (BT74, GBM4 and GBM8); settings: neurosphere growth assays; Hu et al. 2012; cited from earlier work
[3] = Phase I/II dose-escalation study, safety (DLT, SAE, MTD); assay type: in vivo, human; settings: for drug-related serious adverse events: dose cohorts completed to date
Text: The methodology of the study reported in this Example is as follows: An open-label, single arm Phase I/II dose-escalation study designed to evaluate the safety, tolerability, pharmacokinetics and anti-tumor activity of dianhydrogalactitol in patients with: (i) histologically confirmed initial diagnosis of primary WHO Grade IV malignant GBM, now recurrent, or (ii) progressive secondary brain tumor, having failed standard brain radiotherapy, and with brain tumor progression after at least one line of systemic therapy. The study utilizes a 3+3 dose escalation design, until the MTD or the maximum specified dose is reached. […] In Phase II, additional patients will be treated at the MTD (or other selected optimum Phase II dose) to measure tumor responses. All patients enrolled have previously been treated with surgery and/or radiation, if appropriate, and must have failed both bevacizumab and TMZ, unless contraindicated. For these studies, the following is a summary of the inclusion criteria: (1) Patients must be greater than or equal to 18 years old. (2) There is a histologically confirmed initial diagnosis of primary WHO Grade IV malignant glioma (glioblastoma), now recurrent, or progressive secondary brain tumor, the patient has failed standard brain radiotherapy, and the patient has brain tumor progression after at least one line of systemic therapy. […] (4) The patient must have a predicted life expectancy of at least 12 weeks. The following is a summary of the exclusion criteria: (1) There is a current history of neoplasm other than the entry diagnosis. Patients with previous cancers treated and cured with local therapy alone may be considered. (2) There is evidence of leptomeningeal spread of disease. […] (4) The patient had undergone prior treatment with intracerebral agents. […] (6) The patient is being administered concomitant medications that are strong inhibitors of cytochrome P450 and CYP3A up to 14 days before Cycle 1, Day 1 (pimozide, diltiazem, erythromycin, clarithromycin, and quinidine, and amiodarone up to 90 days before.
(§2) Enrollment and evaluation of Cohort 7 (40 mg/m^2) is ongoing. Higher doses may be enrolled subject to completion of mandated safety observation period with Cohort 6 (30 mg/m^2). Patients enrolled present with refractory progressive GBM and a dire prognosis. […] The primary endpoint of this portion of the study is to determine a modernized dosing regimen for advancement to registration-directed clinical trials. […] In this design, it is not possible to perform a rigorous assessment of patient benefit due to slowed tumor growth. Tumor volume is assessed during the study based on RANO criteria. […] Outcomes analysis of cohort 6 is ongoing. These preliminary data support continued exploration of higher dose cohorts.

[4] = Stability of reconstituted dianhydrogalactitol stock solution; assay type: physicochemical; settings: 8 mg/mL in 0.9% sodium chloride for injection
Method: Dianhydrogalactitol (DAG) was provided as a lyophilized product at 40 mg of DAG per vial. For administration, 5 mL of 0.9% sodium chloride for injection, USP (saline) was added to yield a DAG solution with a concentration of 8 mg/mL. This stock solution was stable for 4 hours at room temperature or for 24 hours at 4° C. Further dilutions were made to prepare solutions of injection of 0.9 mg/mL (for administration of 0.18 mg/mouse in 0.2 mL; diluted from the 8 mg/mL reconstituted solution); of 0.45 mg/mL (for administration of 0.09 mg/mouse in 0.2 mL; a 1 to 2 dilution of the 0.9 mg/mL solution); and of 0.225 mg/mL (for administration of 0.045 mg/mouse in 0.2 mL; a 1 to 2 dilution of the 0.45 mg/mL solution).

[5] = tested on: progressive secondary brain tumor; assay: Phase I/II dose-escalation study, tumor response in secondary brain tumor patients; assay type: in vivo, human; settings: n = 6
Text: as §1
Enrollment and evaluation of Cohort 7 (40 mg/m^2) is ongoing. […] Tumor volume is assessed during the study based on RANO criteria. […]

[6] = tested on: recurrent glioblastoma multiforme (GBM); assay: Phase I/II dose-escalation study, tumor response in GBM patients; assay type: in vivo, human
Text: The methodology of the study reported in this Example is as follows: An open-label, single arm Phase I/II dose-escalation study designed to evaluate the safety, tolerability, pharmacokinetics and anti-tumor activity of dianhydrogalactitol in patients with: (i) histologically confirmed initial diagnosis of primary WHO Grade IV malignant GBM, now recurrent, or (ii) progressive secondary brain tumor, having failed standard brain radiotherapy, and with brain tumor progression after at least one line of systemic therapy. The study utilizes a 3+3 dose escalation design, until the MTD or the maximum specified dose is reached. Patients receive dianhydrogalactitol intravenously at the assigned dose on days 1, 2, and 3 of each 21-day treatment cycle. In Phase II, additional patients will be treated at the MTD (or other selected optimum Phase II dose) to measure tumor responses. All patients enrolled have previously been treated with surgery and/or radiation, if appropriate, and must have failed both bevacizumab and TMZ, unless contraindicated. For these studies, the following is a summary of the inclusion criteria: (1) Patients must be greater than or equal to 18 years old. (2) There is a histologically confirmed initial diagnosis of primary WHO Grade IV malignant glioma (glioblastoma), now recurrent, or progressive secondary brain tumor, the patient has failed standard brain radiotherapy, and the patient has brain tumor progression after at least one line of systemic therapy. […] (4) The patient must have a predicted life expectancy of at least 12 weeks. The following is a summary of the exclusion criteria: (1) There is a current history of neoplasm other than the entry diagnosis. Patients with previous cancers treated and cured with local therapy alone may be considered. (2) There is evidence of leptomeningeal spread of disease. […] (4) The patient had undergone prior treatment with intracerebral agents. […] (6) The patient is being administered concomitant medications that are strong inhibitors of cytochrome P450 and CYP3A up to 14 days before Cycle 1, Day 1 (pimozide, diltiazem, erythromycin, clarithromycin, and quinidine, and amiodarone up to 90 days before.
as §2

[7] = secondary brain tumor patients, n = 6

dianhydrogalactitol
pharmacokinetics, dose dependence ([1]; dose cohorts of the current trial): linear
plasma half-life ([1]; i.v., patients): 1 to 2 h
inhibition of growth of cancer stem cells [2]: 80-100%
Status (DLT) ([3]; 1.5 mg/m^2, cumulative 9 mg/m^2 in 33-day cycle): Completed - No DLT
Status (DLT) ([3]; 3.0 mg/m^2, cumulative 18 mg/m^2 in 33-day cycle): Completed - No DLT
Status (DLT) ([3]; 5.0 mg/m^2, cumulative 30 mg/m^2 in 33-day cycle): Completed - No DLT
Status (DLT) ([3]; 10.0 mg/m^2, cumulative 60 mg/m^2 in 33-day cycle): Completed - NO DLT
Status (DLT) ([3]; 20.0 mg/m^2 (revised scheme), cumulative 120 mg/m^2 in 33-day cycle): Completed - NO DLT
Status (DLT) ([3]; 30.0 mg/m^2 (revised scheme), cumulative 180 mg/m^2 in 33-day cycle, analysis ongoing): Completed - No DLT
DLT ([3]; GBM patients, n = 8): None
drug-related serious adverse events [3]: No drug-related serious adverse events have been detected
drug-related serious adverse events ([3]; listed as Dianhydrogalactitol): no drug-related serious adverse events have been detected
maximum tolerated dose (MTD), as 33 day cycle cumulative dose ([3]; five dose cohorts completed, not yet reached): > 120 mg/m^2
maximum tolerated dose (MTD) ([3]; i.v. on days 1, 2, and 3 of each 21-day cycle, not reached): > 30 mg/m^2
DLT [3, 7]: None
SAE [3, 7]: None (n = 5)
stability of stock solution ([4]; 4° C.): 24 h
stability of stock solution ([4]; room temperature): 4 h
Tumor Response, Overall ([5]; secondary brain tumors (breast adenocarcinoma 2, small-cell lung carcinoma 3, melanoma 1)): Overall = 17%
Tumor Response, SD (number of patients) ([5]; secondary brain tumors): SD (1)
tumor response in cohort 6 ([6]; 30 mg/m^2, one of two patients, after 1 cycle of treatment): stable disease
Tumor Response, PR (number of patients) ([6]; GBM, n = 8): PR (1); SD (1)
Tumor Response, SD (number of patients) ([6]; GBM, n = 8): PR (1); SD (1)
Tumor Response, Overall ([6]; GBM, n = 8, prior Surgery/XRT/TMZ/BEV): Overall = 25%
MRI scan findings ([6]; Patient #26, T=64 days versus T=0, after two cycles): Thick confluent regions of abnormal enhancement have diminished
